# Literature values in patent US20190175610A1 (priority 2017, published 2019).
# Conditions: athletes, during exercise after oral supplementation
smiles,measurement,value
"C[N+](C)(C)C[C@H](O)CC(=O)[O-] [L-carnitine, γ-trimethylamino-β-hydroxybutyrate]",benefit on fatty acid metabolism,no benefit
